What was measured:
TLR8 = target: T1, TLR8 (Homo sapiens, UniProt Q9NR97); assay: TLR8 human PBMC cell-based assay (antagonist, Compound A stimulated cytokine release); details: human PBMCs; TLR8 agonist Compound A 800 nM, 6 hours; cytokines (TNFa and IL 12p40) in supernatant; read-out: TLR-8 EC50
T1 construct: Human peripheral blood mononuclear cells (PBMCs) consist of lymphocytes, monocytes and dendritic cells that express TLR7, TLR8 and TLR9; endogenous in cells; host or cells: cryopreserved human PBMCs from healthy donors
T1 sequence (Q9NR97 27-1041): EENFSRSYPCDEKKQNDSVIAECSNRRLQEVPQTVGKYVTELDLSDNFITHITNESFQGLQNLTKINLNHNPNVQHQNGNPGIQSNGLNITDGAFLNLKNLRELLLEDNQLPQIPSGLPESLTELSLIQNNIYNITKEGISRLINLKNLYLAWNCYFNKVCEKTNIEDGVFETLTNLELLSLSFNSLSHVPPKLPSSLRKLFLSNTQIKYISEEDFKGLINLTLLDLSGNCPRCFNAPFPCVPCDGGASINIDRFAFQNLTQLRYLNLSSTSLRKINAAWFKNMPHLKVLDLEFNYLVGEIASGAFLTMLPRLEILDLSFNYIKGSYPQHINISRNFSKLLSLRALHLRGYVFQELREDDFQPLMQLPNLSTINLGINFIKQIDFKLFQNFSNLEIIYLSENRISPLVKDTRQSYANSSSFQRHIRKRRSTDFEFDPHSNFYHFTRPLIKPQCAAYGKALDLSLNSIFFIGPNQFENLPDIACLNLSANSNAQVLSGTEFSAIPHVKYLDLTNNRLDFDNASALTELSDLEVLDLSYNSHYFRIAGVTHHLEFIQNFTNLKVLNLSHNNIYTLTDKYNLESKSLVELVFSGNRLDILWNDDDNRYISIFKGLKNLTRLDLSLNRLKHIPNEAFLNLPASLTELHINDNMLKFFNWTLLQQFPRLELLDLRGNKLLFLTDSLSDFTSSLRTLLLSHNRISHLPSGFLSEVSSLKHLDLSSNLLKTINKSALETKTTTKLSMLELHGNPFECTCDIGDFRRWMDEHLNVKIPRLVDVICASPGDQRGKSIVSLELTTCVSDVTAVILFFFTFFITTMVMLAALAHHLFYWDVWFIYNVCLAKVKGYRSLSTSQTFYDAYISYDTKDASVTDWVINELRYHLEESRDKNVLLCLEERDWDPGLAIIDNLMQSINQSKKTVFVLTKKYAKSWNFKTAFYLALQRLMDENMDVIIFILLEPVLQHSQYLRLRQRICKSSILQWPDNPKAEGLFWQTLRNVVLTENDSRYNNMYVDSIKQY
Method in brief: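 Cryopreserved donor PBMCs (100,000/well, RPMI + 10% FBS) were preincubated 1 h with antagonist (10-point dose response, quadruplicate), then stimulated with Compound A (800 nM final) for 6 h at 37 °C. TNFa and IL-12p40 in supernatants were measured by electrochemiluminescence; sigmoidal fits gave EC50.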

TLR7 = target: T2, TLR7 (Homo sapiens, UniProt Q9NYK1); assay: TLR7 human PBMC cell-based assay (antagonist, GS-986 stimulated cytokine release); details: human PBMCs; TLR7 agonist GS-986 400 nM, 6 hours; cytokines (IL-6 and IFNα) in supernatant; read-out: TLR-7 EC50
T2 construct: Human peripheral blood mononuclear cells (PBMCs) consist of lymphocytes, monocytes and dendritic cells that express TLR7, TLR8 and TLR9; endogenous in cells; host or cells: cryopreserved human PBMCs from healthy donors
T2 sequence (Q9NYK1 27-1049): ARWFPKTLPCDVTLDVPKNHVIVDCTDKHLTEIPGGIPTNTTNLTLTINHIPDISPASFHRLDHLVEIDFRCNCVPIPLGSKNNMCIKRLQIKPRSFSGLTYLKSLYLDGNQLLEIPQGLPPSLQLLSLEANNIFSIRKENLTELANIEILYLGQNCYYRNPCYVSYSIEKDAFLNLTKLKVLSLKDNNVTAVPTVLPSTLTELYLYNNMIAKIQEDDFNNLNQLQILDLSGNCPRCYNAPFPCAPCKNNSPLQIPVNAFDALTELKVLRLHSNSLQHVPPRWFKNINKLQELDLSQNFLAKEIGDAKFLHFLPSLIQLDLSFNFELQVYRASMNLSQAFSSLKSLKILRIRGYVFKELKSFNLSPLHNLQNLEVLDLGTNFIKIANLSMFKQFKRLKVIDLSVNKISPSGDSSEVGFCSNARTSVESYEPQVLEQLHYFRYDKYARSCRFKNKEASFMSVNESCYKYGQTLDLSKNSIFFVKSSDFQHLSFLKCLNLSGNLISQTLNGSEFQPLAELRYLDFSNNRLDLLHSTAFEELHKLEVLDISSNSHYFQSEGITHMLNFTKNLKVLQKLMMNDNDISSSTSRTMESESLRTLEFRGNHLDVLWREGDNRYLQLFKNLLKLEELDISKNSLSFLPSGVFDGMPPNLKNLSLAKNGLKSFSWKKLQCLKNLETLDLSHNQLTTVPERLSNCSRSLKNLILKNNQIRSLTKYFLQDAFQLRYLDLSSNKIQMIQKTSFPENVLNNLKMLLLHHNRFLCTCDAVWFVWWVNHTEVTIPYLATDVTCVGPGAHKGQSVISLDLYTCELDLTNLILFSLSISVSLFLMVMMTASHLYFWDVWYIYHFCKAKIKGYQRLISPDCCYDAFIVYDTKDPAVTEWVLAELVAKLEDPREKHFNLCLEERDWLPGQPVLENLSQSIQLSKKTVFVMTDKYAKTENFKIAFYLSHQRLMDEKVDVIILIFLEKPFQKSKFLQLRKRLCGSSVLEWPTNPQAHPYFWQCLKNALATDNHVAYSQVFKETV
Method in brief: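 EC50 derived by sigmoidal fitting of IL-6 and IFNα levels, quantified by electrochemiluminescence in supernatants of human PBMCs given 400 nM GS-986 for 6 h. Cells (100,000/well in RPMI-1640, 10% FBS) had received test antagonist 1 h beforehand, 10 doses in quadruplicate, at 37 °C.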

An EC50 (TLR8) of 14.7 nM and an EC50 (TLR7) of 26.5 nM were found for `Cc1cc(-c2[nH]c3cc(C(=O)N(C)C4CCN(CCC(F)(F)F)CC4)sc3c2C(C)C)cn2ncnc12` [Example 269, 6-isopropyl-N-methyl-5-(8-methyl-[1,2,4]triazolo[1,5-a]pyridin-6-yl)-N-[1-(3,3,3-trifluoropropyl)-4-piperidyl]-4H-thieno[3,2-b]pyrrole-2-carboxamide] in this work.

Reference: US20240217990A1 (Gilead Sciences, Inc., priority 2021, published 2024)
